Measured values as given in patent publication US10441576B2, “Substituted 1,2-dihydro-3H pyrrolo[1,2-c]imidazol-3 one antibacterials” (priority 2015, dated 2019).
In brackets after ≈: the same amount, converted by molar mass.

How the values were obtained:
Type in all cases: cell-based
[1] = test system: wild-type E. coli A-1261; assay: MIC against E. coli A-1261 in the absence or presence of alkaline phosphatase or esterase
Description: (§1) Minimal Inhibitory Concentrations (MICs; mg/L) were determined in cation-adjusted Mueller-Hinton Broth by a microdilution method following the description given in “Methods for Dilution Antimicrobial Susceptibility Tests for Bacteria that Grow Aerobically”, Approved standard, 7th ed., Clinical and Laboratory Standards Institute (CLSI) Document M7-A7, Wayne, Pa., USA (2006).
All Example compounds were tested against wild-type E. coli A-1261 in the absence of alkaline phosphatase or esterase, in the presence of an alkaline phosphatase and in the presence of an esterase. The corresponding antibacterial test results are given in Table 2 hereafter (MICs in mg/L).

[2] = test system: E. coli ATCC25922; assay: Bacterial growth minimal inhibitory concentration (microdilution, cation-adjusted Mueller-Hinton Broth); conditions: Escherichia coli, quinolone-sensitive strain
Description: as §1
(§2) All Reference Example compounds were tested against several Gram-negative bacteria. […] The corresponding antibacterial test results are given in Table 1 hereafter (MICs in mg/L).

[3] = test system: K. pneumoniae A-651; assay: as above; conditions: Klebsiella pneumoniae, A651; multiply resistant strain (in particular quinolone-resistant)
Description: as §1, §2

[4] = test system: P. aeruginosa ATCC27853; assay: as above; conditions: Pseudomonas aeruginosa, quinolone-sensitive strain
Description: as §1, §2

[5] = test system: wild-type E. coli A-1261; assay: as above; conditions: Escherichia coli, quinolone-sensitive strain
Description: as §1, §2

[6] = Escherichia coli; alkaline phosphatase 2 i.U./mL; read-out: MIC for E. coli A-1261 In the presence of an alkaline phosphatase (2 i.U./mL)
[7] = Escherichia coli; esterase 10 i.U./mL; read-out: MIC for E. coli A-1261 In the presence of an esterase (10 i.U./mL)
[8] = Escherichia coli; read-out: MIC for E. coli A-1261 In the absence of alkaline phosphatase or esterase
[9] = Escherichia coli, read-out: MIC for E. coli A-1261 In the absence of alkaline phosphatase or esterase
[10] = Escherichia coli, read-out: MIC for E. coli A-1261 In the presence of an alkaline phosphatase (2 i.U./mL)
[11] = Escherichia coli, read-out: MIC for E. coli A-1261 In the presence of an esterase (10 i.U./mL)

## C[C@@](CCN1Cc2cc(C#CC#CC3(COC(=O)CN4CCOCC4)CC3)cn2C1=O)(C(=O)NO)S(C)(=O)=O [Example 1, (R)-(1-((2-(4-(hydroxyamino)-3-methyl-3-(methylsulfonyl)-4-oxobutyl)-3-oxo-2,3-dihydro-1H-pyrrolo[1,2-c]imidazol-6-yl)buta-1,3-diyn-1-yl)cyclopropyl)methyl 2-morpholinoacetate]
[1]; [6]
  MIC: 1 µg/mL
[1]; [7]
  MIC: 0.25 µg/mL
[1]; [8]
  MIC: 2 µg/mL

## C[C@@](CCN1Cc2cc(C#CC#CC3(COC(=O)CCc4ccccc4OP(=O)(O)O)CC3)cn2C1=O)(C(=O)NO)S(C)(=O)=O [Example 2, (R)-(1-((2-(4-(hydroxyamino)-3-methyl-3-(methylsulfonyl)-4-oxobutyl)-3-oxo-2,3-dihydro-1H-pyrrolo[1,2-c]imidazol-6-yl)buta-1,3-diyn-1-yl)cyclopropyl)methyl 3-(2-(phosphonooxy)phenyl)propanoate]
[1]; [9]
  MIC: 8 µg/mL
[1]; [10]
  MIC: 1 µg/mL
[1]; [11]
  MIC: 1 µg/mL

## C[C@@](CCN1Cc2cc(C#CC#CC3(CO)CC3)cn2C1=O)(C(=O)NOC(=O)CCc1ccccc1OP(=O)(O)O)S(C)(=O)=O [Example 3, (R)-2-(3-((4-(6-((1-(hydroxymethyl)cyclopropyl)buta-1,3-diyn-1-yl)-3-oxo-1H-pyrrolo[1,2-c]imidazol-2(3H)-yl)-2-methyl-2-(methylsulfonyl)butanamido)oxy)-3-oxopropyl)phenyl dihydrogen phosphate]
[1]; [9]
  MIC: 8 µg/mL
[1]; [10]
  MIC: 0.5 µg/mL
[1]; [11]
  MIC: 8 µg/mL

## C[C@@](CCN1Cc2cc(C#CC#C[C@H]3C[C@@H]3COP(=O)(O)O)cn2C1=O)(C(=O)NO)S(C)(=O)=O [Example 4, ((1S,2S)-2-((2-((R)-4-(hydroxyamino)-3-methyl-3-(methylsulfonyl)-4-oxobutyl)-3-oxo-2,3-dihydro-1H-pyrrolo[1,2-c]imidazol-6-yl)buta-1,3-diyn-1-yl)cyclopropyl)methyl dihydrogen phosphate]
[1]; [6]
  MIC: 0.25 µg/mL
[1]; [7]
  MIC: > 8 µg/mL
[1]; [8]
  MIC: > 8 µg/mL

## C[C@@](CCN1Cc2cc(C#CC#C[C@H]3C[C@@H]3COC(=O)CCc3ccccc3OP(=O)(O)O)cn2C1=O)(C(=O)NO)S(C)(=O)=O [Example 5, ((1S,2S)-2-((2-((R)-4-(hydroxyamino)-3-methyl-3-(methylsulfonyl)-4-oxobutyl)-3-oxo-2,3-dihydro-1H-pyrrolo[1,2-c]imidazol-6-yl)buta-1,3-diyn-1-yl)cyclopropyl)methyl 3-(2-(phosphonooxy)phenyl)propanoate]
[1]; [9]
  MIC: 4 µg/mL
[1]; [10]
  MIC: 0.25 µg/mL
[1]; [11]
  MIC: 0.25 µg/mL

## C[C@@](CCN1Cc2cc(C#CC#C[C@H]3C[C@]3(F)COP(=O)(O)O)cn2C1=O)(C(=O)NO)S(C)(=O)=O [Example 6, ((1R,2R)-1-fluoro-2-((2-((R)-4-(hydroxyamino)-3-methyl-3-(methylsulfonyl)-4-oxobutyl)-3-oxo-2,3-dihydro-1H-pyrrolo[1,2-c]imidazol-6-yl)buta-1,3-diyn-1-yl)cyclopropyl)methyl dihydrogen phosphate]
[1]; [6]
  MIC: 0.5 µg/mL
[1]; [7]
  MIC: > 8 µg/mL
[1]; [8]
  MIC: > 8 µg/mL

## C[C@@](CCN1Cc2cc(C#CC#CC3(CO)CC3)cn2C1=O)(C(=O)NOP(=O)(O)O)S(C)(=O)=O.N [Example 7, mono-ammonium (R)-((4-(6-((1-(hydroxymethyl)cyclopropyl)buta-1,3-diyn-1-yl)-3-oxo-1H-pyrrolo[1,2-c]imidazol-2(3H)-yl)-2-methyl-2-(methylsulfonyl)butanamido)oxy)phosphonate]
[1]; [6]
  MIC: 1 µg/mL
[1]; [7]
  MIC: 4 µg/mL
[1]; [8]
  MIC: 4 µg/mL

## C[C@@](CCN1Cc2cc(C#CC#CC3(CO)CC3)cn2C1=O)(C(=O)NO)S(C)(=O)=O [RE1, (R)—N-hydroxy-4-(6-((1-(hydroxymethyl)cyclopropyl)buta-1,3-diyn-1-yl)-3-oxo-1H-pyrrolo[1,2-c]imidazol-2(3H)-yl)-2-methyl-2-(methylsulfonyl)butanamide]
[2]
  MIC: 0.5 µg/mL (≈ 1.15 µM)
[3]
  MIC: 1 µg/mL (≈ 2.31 µM)
[4]
  MIC: 1 µg/mL (≈ 2.31 µM)
[5]
  MIC: 0.25 µg/mL (≈ 0.577 µM)

## C[C@@](CCN1Cc2cc(C#CC#C[C@H]3C[C@@H]3CO)cn2C1=O)(C(=O)NO)S(C)(=O)=O [RE2, (R)—N-hydroxy-4-(6-(((1S,2S)-2-(hydroxymethyl)cyclopropyl)buta-1,3-diyn-1-yl)-3-oxo-1H-pyrrolo[1,2-c]imidazol-2(3H)-yl)-2-methyl-2-(methylsulfonyl)butanamide]
[2]
  MIC: 0.25 µg/mL (≈ 0.577 µM)
[3]
  MIC: 0.25 µg/mL (≈ 0.577 µM)
[4]
  MIC: 0.25 µg/mL (≈ 0.577 µM)
[5]
  MIC: 0.125 µg/mL (≈ 0.288 µM)

## C[C@@](CCN1Cc2cc(C#CC#C[C@H]3C[C@]3(F)CO)cn2C1=O)(C(=O)NO)S(C)(=O)=O [RE3, (R)-4-(6-(((1R,2R)-2-fluoro-2-(hydroxymethyl)cyclopropyl)buta-1,3-diyn-1-yl)-3-oxo-1H-pyrrolo[1,2-c]imidazol-2(3H)-yl)-N-hydroxy-2-methyl-2-(methylsulfonyl)butanamide]
[2]
  MIC: 0.25 µg/mL (≈ 0.554 µM)
[3]
  MIC: 0.5 µg/mL (≈ 1.11 µM)
[4]
  MIC: 0.5 µg/mL (≈ 1.11 µM)
[5]
  MIC: 0.25 µg/mL (≈ 0.554 µM)

## (R)-(1-((2-(4-(hydroxyamino)-3-methyl-3-(methylsulfonyl)-4-oxobutyl)-3-oxo-2,3-dihydro-1H-pyrrolo[1,2-c]imidazol-6-yl)buta-1,3-diyn-1-yl)cyclopropyl)methyl hydrogen sulfate [Example 8]
[1]; absence of alkaline phosphatase or esterase
  MIC for E. coli A-1261 In the absence of alkaline phosphatase or esterase: 2 mg/L
[1]; alkaline phosphatase 2 i.U./mL
  MIC for E. coli A-1261 In the presence of an alkaline phosphatase (2 i.U./mL): 2 mg/L
[1]; esterase 10 i.U./mL
  MIC for E. coli A-1261 In the presence of an esterase (10 i.U./mL): 2 mg/L
